From ChEMBL document CHEMBL3813632, “Thiazolo[3,2-a]benzimidazol-3(2H)-one derivatives: Structure-activity relationships of selective nucleotide pyrophosphatase/phosphodiesterase1 (NPP1) inhibitors” (Bioorg Med Chem, 2016) come the findings set out here.

Calls of active or inactive are those of the source. The rule behind the calls is not given here.

Series [1] addresses T1, Ectonucleoside triphosphate diphosphohydrolase 2 (Homo sapiens) (UniProt Q9Y5L3).
T1 sequence (whole entry): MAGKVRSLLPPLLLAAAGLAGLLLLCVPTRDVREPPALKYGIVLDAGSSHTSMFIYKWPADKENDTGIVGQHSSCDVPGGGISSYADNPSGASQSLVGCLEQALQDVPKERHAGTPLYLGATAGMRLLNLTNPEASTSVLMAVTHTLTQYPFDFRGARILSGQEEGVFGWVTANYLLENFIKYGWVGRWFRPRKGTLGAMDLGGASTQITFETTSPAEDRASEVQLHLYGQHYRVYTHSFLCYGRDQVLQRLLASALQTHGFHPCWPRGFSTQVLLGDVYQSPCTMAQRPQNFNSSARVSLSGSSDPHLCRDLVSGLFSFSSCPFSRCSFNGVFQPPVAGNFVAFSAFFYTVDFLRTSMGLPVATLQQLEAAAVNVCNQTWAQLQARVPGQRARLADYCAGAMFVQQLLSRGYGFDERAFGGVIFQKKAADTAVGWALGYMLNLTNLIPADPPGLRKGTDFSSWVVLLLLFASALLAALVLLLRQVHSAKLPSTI
As to the kind of experiment: Inhibition of human recombinant NTPDase2 expressed in CHO cells using ATP as substrate at 10 to 1000 uM preincubated with substrate followed by protein addition and subsequent incubation for 30 mins by capillary electrophoresis.

The species entered for series [2] is Homo sapiens. As to the kind of experiment: Selectivity ratio of Ki for human recombinant soluble NTPDase3 to Ki for human recombinant NPP1.
The species named for series [3] is Homo sapiens. As to the kind of experiment: Selectivity ratio of Ki for human recombinant Ecto-5'-nucleotidase to Ki for human recombinant NPP1.
Series [4] in a line: Chemical stability of the compound assessed as compound remaining at pH 9 at 25 degC after 24 hrs by HPLC-MS analysis. The series is classed as physicochemical. The conditions noted are these: buffer, read-out: Stability.
Another series concerns the target Autotaxin (Homo sapiens) (UniProt Q13822). As to the kind of experiment: Inhibition of human recombinant NPP2 expressed in insect SF9 cells using 1-oleoylsn-glycero-3-phosphocholine as substrate at >100 uM preincubated with substrate followed by protein addition and subsequent incubation for 60 mins by colorimetric analysis.
Series [5] in a line: Chemical stability of the compound at pH 9 at 25 degC after 8 hrs by HPLC-MS analysis. It counts as physicochemical. The conditions noted are these: buffer, pH 9, 8 h.
Series [6] addresses T2, Ectonucleotide pyrophosphatase/phosphodiesterase family member 3 (Homo sapiens) (UniProt O14638).
T2 sequence (whole entry): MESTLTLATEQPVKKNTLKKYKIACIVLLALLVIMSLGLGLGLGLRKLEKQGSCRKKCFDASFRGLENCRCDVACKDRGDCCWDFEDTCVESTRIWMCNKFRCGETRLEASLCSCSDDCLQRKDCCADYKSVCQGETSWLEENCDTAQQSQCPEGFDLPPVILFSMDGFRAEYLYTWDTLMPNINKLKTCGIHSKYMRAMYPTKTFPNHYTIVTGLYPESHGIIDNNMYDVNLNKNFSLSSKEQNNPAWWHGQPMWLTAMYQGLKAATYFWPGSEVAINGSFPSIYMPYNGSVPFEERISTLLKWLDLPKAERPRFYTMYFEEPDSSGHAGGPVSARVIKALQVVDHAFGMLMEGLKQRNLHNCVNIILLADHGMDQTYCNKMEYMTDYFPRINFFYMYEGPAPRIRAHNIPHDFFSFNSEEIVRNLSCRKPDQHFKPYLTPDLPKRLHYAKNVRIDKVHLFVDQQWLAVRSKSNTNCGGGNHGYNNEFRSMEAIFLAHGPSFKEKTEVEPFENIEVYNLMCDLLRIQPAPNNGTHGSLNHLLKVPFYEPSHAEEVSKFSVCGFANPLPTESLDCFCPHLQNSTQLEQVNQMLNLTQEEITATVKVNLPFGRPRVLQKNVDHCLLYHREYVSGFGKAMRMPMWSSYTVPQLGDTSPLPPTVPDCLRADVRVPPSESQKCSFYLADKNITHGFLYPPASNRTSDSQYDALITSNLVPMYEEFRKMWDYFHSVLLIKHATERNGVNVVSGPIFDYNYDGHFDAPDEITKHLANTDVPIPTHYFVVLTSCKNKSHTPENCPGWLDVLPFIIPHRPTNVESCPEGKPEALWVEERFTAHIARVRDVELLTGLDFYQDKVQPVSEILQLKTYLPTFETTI
Kind of series: Inhibition of human recombinant NPP3 expressed in insect SF9 cells using ATP as substrate at >100 uM preincubated with substrate followed by protein addition and subsequent incubation for 60 mins by capillary electrophoresis.

Series [7] concerns the target T3, Ectonucleoside triphosphate diphosphohydrolase 3 (Homo sapiens) (UniProt O75355).
T3 sequence (whole entry): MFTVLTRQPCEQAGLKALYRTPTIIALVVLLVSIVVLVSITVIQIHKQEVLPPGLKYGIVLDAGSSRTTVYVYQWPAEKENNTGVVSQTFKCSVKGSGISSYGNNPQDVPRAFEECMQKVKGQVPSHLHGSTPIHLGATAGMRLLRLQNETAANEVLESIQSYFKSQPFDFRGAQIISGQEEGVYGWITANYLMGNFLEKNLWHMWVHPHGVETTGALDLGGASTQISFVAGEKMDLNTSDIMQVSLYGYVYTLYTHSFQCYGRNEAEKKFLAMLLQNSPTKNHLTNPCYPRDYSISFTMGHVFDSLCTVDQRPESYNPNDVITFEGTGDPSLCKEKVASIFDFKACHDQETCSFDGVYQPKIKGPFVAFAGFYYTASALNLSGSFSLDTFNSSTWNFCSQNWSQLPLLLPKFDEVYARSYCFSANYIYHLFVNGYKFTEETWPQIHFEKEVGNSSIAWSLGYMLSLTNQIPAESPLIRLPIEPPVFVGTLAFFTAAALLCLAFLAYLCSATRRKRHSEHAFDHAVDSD
As to the kind of experiment: Inhibition of human recombinant NTPDase3 expressed in NS0 cells using ATP as substrate at 10 to 1000 uM preincubated with substrate followed by protein addition and subsequent incubation for 30 mins by capillary electrophoresis.

For series [8], the species on record is Homo sapiens. As to the kind of experiment: Selectivity ratio of Ki for human recombinant NPP3 to Ki for human recombinant NPP1.
A short description of series [9]: Chemical stability of the compound assessed as compound remaining at pH 9 at 37 degC after 24 hrs by HPLC-MS analysis. The series is classed as physicochemical. The conditions noted are these: buffer, read-out: Stability.

For the compound `O=c1/c(=C/c2ccc(I)o2)sc2nc3ccccc3n12`, the inhibition result in series [1] and in [7] was “inactive” each time. The Ratio Ki in the series filed under Homo sapiens [2], in the series filed under Homo sapiens [3] and in the series filed under Homo sapiens [8] was 1000 each time. Besides, the remaining at 24 h in [4] worked out at 52.4%; in series [9], 27.4%. For the same compound, the inhibition entry (at Autotaxin (Homo sapiens); in series [6]) was “Active” throughout. Further, in series [5], the Stability entry is given as “Stable”.
